Laboratory results taken from patent US8188139B2, “Heterocyclic-substituted phenyl methanones” (Hoffman-La Roche Inc., priority 2005, dated 2012).

molecular target: T1, mGlyT-1b (Mus musculus, UniProt P28571); assay: Glycine uptake inhibition assay (mGlyT-1b); assay type: cell-based; settings: inhibition of [3H]-glycine uptake in Flp-in-CHO cells transfected with mGlyT-1b cDNA; 20 min preincubation at 22° C.; read-out: IC50 (μM) at GlyT-1
T1 construct: host or cells: Flp-in-CHO
T1 sequence (P28571 1-651 isoform P28571-2): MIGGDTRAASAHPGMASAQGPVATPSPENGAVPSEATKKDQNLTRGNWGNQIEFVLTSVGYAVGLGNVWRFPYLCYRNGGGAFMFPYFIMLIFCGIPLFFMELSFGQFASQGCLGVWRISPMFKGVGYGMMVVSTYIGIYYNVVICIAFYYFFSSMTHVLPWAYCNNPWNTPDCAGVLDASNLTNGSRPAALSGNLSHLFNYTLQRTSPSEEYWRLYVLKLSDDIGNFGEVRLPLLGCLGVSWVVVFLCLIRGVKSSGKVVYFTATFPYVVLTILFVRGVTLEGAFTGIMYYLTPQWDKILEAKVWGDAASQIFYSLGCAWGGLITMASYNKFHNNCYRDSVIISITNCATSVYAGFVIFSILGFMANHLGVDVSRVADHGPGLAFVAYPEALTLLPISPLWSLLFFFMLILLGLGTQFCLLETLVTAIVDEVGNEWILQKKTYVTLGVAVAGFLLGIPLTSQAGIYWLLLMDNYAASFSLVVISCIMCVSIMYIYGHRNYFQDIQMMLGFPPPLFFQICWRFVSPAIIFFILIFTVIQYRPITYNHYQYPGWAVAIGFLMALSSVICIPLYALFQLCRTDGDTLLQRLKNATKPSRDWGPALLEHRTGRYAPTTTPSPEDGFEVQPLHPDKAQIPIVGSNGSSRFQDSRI
Procedure, shortened: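 Flp-in CHO cells stably expressing mouse GlyT-1b were preincubated with inhibitor (concentration range) for 20 min at 22° C. in pH 7.4 uptake buffer; nonspecific uptake defined with 10 mM glycine. [3H]-glycine 60 nM plus 25 μM unlabelled glycine was then added; cell-associated radioactivity counted by scintillation and IC50 derived.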

Row | Structure (SMILES) | IC50
1 | Cc1ccsc1-c1ccc2c(c1)CN(C(=O)c1cc(S(C)(=O)=O)ccc1O[C@@H](C)C(F)(F)F)C2 [Example 332, [5-Methanesulfonyl-2-(2,2,2-trifluoro-1-methyl-ethoxy)-phenyl]-[5-(3-methyl-thiophen-2-yl)-1,3-dihydro-isoindol-2-yl]-methanone] | 0.041 µM
2 | C[C@H](Oc1ccc(S(C)(=O)=O)cc1C(=O)N1Cc2ccc(-c3ccc(F)cc3)cc2C1)C(F)(F)F [Example 333, [5-(4-Fluoro-phenyl)-1,3-dihydro-isoindol-2-yl]-[5-methanesulfonyl-2-(2,2,2-trifluoro-1-methyl-ethoxy)-phenyl]-methanone] | 0.047 µM
3 | C[C@H](Oc1ccc(S(C)(=O)=O)cc1C(=O)N1Cc2ccc(-c3ccccc3F)cc2C1)C(F)(F)F [Example 335, [5-(2-Fluoro-phenyl)-1,3-dihydro-isoindol-2-yl]-[5-methanesulfonyl-2-(2,2,2-trifluoro-1-methyl-ethoxy)-phenyl]-methanone] | 0.031 µM
4 | C[C@H](Oc1ccc(S(C)(=O)=O)cc1C(=O)N1Cc2ccc(-c3cc(F)cc(F)c3)cc2C1)C(F)(F)F [Example 337] | 0.022 µM
5 | Cc1cscc1-c1ccc2c(c1)CN(C(=O)c1cc(S(C)(=O)=O)ccc1O[C@@H](C)C(F)(F)F)C2 [Example 345] | 0.034 µM
6 | C[C@H](Oc1ccc(S(C)(=O)=O)cc1C(=O)N1Cc2cnc(N3CCOCC3)cc2C1)C(F)(F)F [Example 356, [5-Methanesulfonyl-2-((S)-2,2,2-trifluoro-1-methyl-ethoxy)-phenyl]-(6-morpholin-4-yl-1,3-dihydro-pyrrolo[3,4-c]pyridin-2-yl)-methanone] | 0.013 µM
7 | C[C@H](Oc1ccc(S(C)(=O)=O)cc1C(=O)N1Cc2ccc(OCC(F)(F)F)cc2C1)C(F)(F)F [Example 357, [5-Methanesulfonyl-2-((S)-2,2,2-trifluoro-1-methyl-ethoxy)-phenyl]-[5-(2,2,2-trifluoro-ethoxy)-1,3-dihydro-isoindol-2-yl]-methanone] | 0.03 µM
8 | CS(=O)(=O)c1ccc(OCC(F)(F)C(F)(F)F)c(C(=O)N2Cc3cc(Cl)c(N4C5CCC4COC5)cc3C2)c1 [Example 363, [5-Chloro-6-(3-oxa-8-aza-bicyclo[3.2.1]oct-8-yl)-1,3-dihydro-isoindol-2-yl]-[5-methanesulfonyl-2-(2,2,3,3,3-pentafluoro-propoxy)-phenyl]-methanone] | 0.004 µM
9 | C[C@H](Oc1ccc(S(C)(=O)=O)cc1C(=O)N1Cc2ccc(C3(F)COC3)cc2C1)C(F)(F)F [Example 368, [5-(3-Fluoro-oxetan-3-yl)-1,3-dihydro-isoindol-2-yl]-[5-methanesulfonyl-2-((S)-2,2,2-trifluoro-1-methyl-ethoxy)-phenyl]-methanone] | 0.005 µM
10 | C[C@H](Oc1ccc(S(C)(=O)=O)cc1C(=O)N1Cc2cc(F)c(N3CCOCC3)cc2C1)C(F)(F)F [Example 371, (5-Fluoro-6-morpholin-4-yl-1,3-dihydro-isoindol-2-yl)-[5-methanesulfonyl-2-((S)-2,2,2-trifluoro-1-methyl-ethoxy)-phenyl]-methanone] | 0.006 µM
11 | CS(=O)(=O)c1ccc(OCC(F)(F)C(F)(F)F)c(C(=O)N2Cc3cc(F)c(N4CCOCC4)cc3C2)c1 [Example 372, (5-Fluoro-6-morpholin-4-yl-1,3-dihydro-isoindol-2-yl)-[5-methanesulfonyl-2-(2,2,2,3,3-pentafluoropropoxy)-phenyl]-methanone] | 0.004 µM
12 | CC(C)Oc1ccc(S(C)(=O)=O)cc1C(=O)N1Cc2ccc(OC3CCOCC3)cc2C1 [Example 373, (2-Isopropoxy-5-methanesulfonyl-phenyl)-[5-(tetrahydro-pyran-4-yloxy)-1,3-dihydro-isoindol-2-yl]-methanone] | 0.015 µM
13 | CS(=O)(=O)c1ccc(OCC(F)(F)C(F)(F)F)c(C(=O)N2Cc3ccc(OC4CCOCC4)cc3C2)c1 [Example 374, [5-Methanesulfonyl-2-(2,2,3,3,3-pentafluoro-propoxy)-phenyl]-[5-(tetrahydro-pyran-4-yloxy)-1,3-dihydro-isoindol-2-yl]-methanone] | 0.003 µM

More lines, in order of falling IC50, values ahead:

Row | IC50 | Structure (SMILES)
14 | 0.047 µM | C[C@H](Oc1ccc(S(C)(=O)=O)cc1C(=O)N1Cc2ccc(OCCC(F)(F)F)cc2C1)C(F)(F)F [Example 370, [5-Methanesulfonyl-2-((S)-2,2,2-trifluoro-1-methyl-ethoxy)-phenyl]-[5-(3,3,3-trifluoro-propoxy)-1,3-dihydro-isoindol-2-yl]-methanone]
15 | 0.043 µM | C[C@H](Oc1ccc(S(C)(=O)=O)cc1C(=O)N1Cc2ccc(-n3cccn3)cc2C1)C(F)(F)F [Example 347]
16 | 0.033 µM | C[C@H](Oc1ccc(S(C)(=O)=O)cc1C(=O)N1Cc2cc(Cl)c(N3C[C@@H]4C[C@H]3CO4)cc2C1)C(F)(F)F [Example 365, ((1S,4S)-5-Chloro-6-2-oxa-5-aza-bicyclo[2.2.1]hept-5-yl-1,3-dihydro-isoindol-2-yl)-[5-methanesulfonyl-2-((S)-2,2,2-trifluoro-1-methyl-ethoxy)-phenyl]-methanone]
17 | 0.025 µM | COc1cccc(-c2ccc3c(c2)CN(C(=O)c2cc(S(C)(=O)=O)ccc2O[C@@H](C)C(F)(F)F)C3)c1 [Example 340, [5-Methanesulfonyl-2-(2,2,2-trifluoro-1-methyl-ethoxy)-phenyl]-[5-(3-methoxy-phenyl)-1,3-dihydro-isoindol-2-yl]-methanone]
18 | 0.02 µM | C[C@H](Oc1ccc(S(C)(=O)=O)cc1C(=O)N1Cc2ccc(-c3cccc(F)c3)cc2C1)C(F)(F)F [Example 334, [5-(3-Fluoro-phenyl)-1,3-dihydro-isoindol-2-yl]-[5-methanesulfonyl-2-(2,2,2-trifluoro-1-methyl-ethoxy)-phenyl]-methanone]
19 | 0.02 µM | C[C@H](Oc1ccc(S(C)(=O)=O)cc1C(=O)N1Cc2ccc(-c3cccs3)cc2C1)C(F)(F)F [Example 344]
20 | 0.016 µM | CC(C)Oc1ccc(S(C)(=O)=O)cc1C(=O)N1Cc2cc(Cl)c(OC3CCOCC3)cc2C1 [Example 376, [5-Chloro-6-(tetrahydro-pyran-4-yloxy)-1,3-dihydro-isoindol-2-yl]-(2-isopropoxy-5-methanesulfonyl-phenyl)-methanone]
21 | 0.015 µM | C[C@H](Oc1ccc(S(C)(=O)=O)cc1C(=O)N1Cc2cc(Cl)c(OC3CCOCC3)cc2C1)C(F)(F)F [Example 375, [5-Chloro-6-(tetrahydro-pyran-4-yloxy)-1,3-dihydro-isoindol-2-yl]-[5-methanesulfonyl-2-((S)-2,2,2-trifluoro-1-methyl-ethoxy)-phenyl]-methanone]
22 | 0.002 µM | C[C@H](Oc1ccc(S(C)(=O)=O)cc1C(=O)N1Cc2cc(F)c(C3CCOCC3)cc2C1)C(F)(F)F [Example 366, [5-Fluoro-6-(tetrahydro-pyran-4-yl)-1,3-dihydro-isoindol-2-yl]-[5-methanesulfonyl-2-((S)-2,2,2-trifluoro-1-methyl-ethoxy)-phenyl]-methanone]
23 | 0.0015 µM | C[C@H](Oc1ccc(S(C)(=O)=O)cc1C(=O)N1Cc2ccc(OC3CCOCC3)cc2C1)C(F)(F)F [Example 367, [5-Methanesulfonyl-2-((S)-2,2,2-trifluoro-1-methyl-ethoxy)-phenyl]-[5-(tetrahydro-pyran-4-yloxy)-1,3-dihydro-isoindol-2-yl]-methanone]
